# Source: patent publication US20060252828A1 (priority 2003, published 2006)
# Several values for one entry are separate records, joined by “and”; a condition that tells them apart may be missing. Equal entries are not always repeated.
# Tested on: Meloidogyne spp (Mixture of Meloidogyne incognita and Meloidogyne hapla)
# Conditions: in vivo
smiles,measurement,value
"CN1CSC(=S)N(C)C1 [dazomet, 3,5-dimethyltetrahydro-2H-1,3,5-thiadiazine-2-thione]",Observed efficacy,2% and 0%
